From US11440870B2, “Cannabidiolic acid esters compositions and uses thereof” (Yissum Research Development Company of the Hebrew …, priority 2017, dated 2022)

Test system: anxiety-like responding in rats
Test: Light-dark box emergence test after foot shock stress (anxiety-like responding)
Format: in vivo, male Sprague-Dawley rats
Settings: WAY100635 i.p. 15 min before VEH; P<0.05
Excerpt: Animal procedures complied with the Canadian Council on Animal Care, and the protocols were approved by the Institutional Animal Care Committee at University of Guelph. Animal studies are reported in compliance with the ARRIVE guidelines (Kilkenny et al., 2010; McGrath and Lilley, 2015). A total of 200 näive male Sprague-Dawley rats, obtained from Charles River Laboratories (St Constant, Quebec), were used for all in vivo studies. Rats were individually housed (for acute nausea studies) or pair-housed [for anticipatory nausea and light-dark emergence studies] in home cages made of opaque white plastic (48×26×20 cm), containing bed-o-cob bedding from Harlan Laboratories, Inc. (Mississauga, Ontario), a brown paper towel, and Crinkl'Nest™ from The Andersons, Inc. (Maumee, Ohio). Additionally, in the home cage, rats were provided with a soft white paper container that was 14 cm long and 12 cm in diameter. All rats were subjected to an ambient temperature of 21° C. and a 12/12 h light-dark schedule (lights off at 07:00 h) and maintained on food (Highland Rat Chow [8640]) and water ad libitum. For the acute and anticipatory nausea studies, their body weights ranged from 263 to 329 g on the day of conditioning. For the light-dark emergence studies, their body weights ranged from 320 to 387 g on the day of test.
For the in vivo experiment 3, anxiolytic-like responding was evaluated using the light-dark emergence apparatus, which consisted of an opaque white plastic rectangular box that was divided into two compartments: a small (25 cm wide×20.5 cm long×20.5 cm high) enclosed dark box built of opaque black plastic with a door (8 cm wide×10 cm high) leading to a larger (39.5 cm long×25 cm wide) open lit box. The open lit box was illuminated by one lamp (with a 60 W bulb, 180 lux in the light chamber) positioned 115 cm above the center of the lit box. A video camera was mounted over the top of the light-dark box, and the video tapes were analyzed by the Ethovision software (Noldus Information Technology, Leesburg, Va., USA) for the duration of time spent in the light box for the 5 min test. For the foot shock (FS) session, the rats were placed in sound attenuating MED Associates fear conditioning chambers (St. Albans, Vt., USA). The 6 min FS session consisted of six 0.8 mA foot shocks delivered 1 min apart. Each 0.5 s shock was preceded by a 30 s auditory tone (90 Db, 5000 Hz) as described by Bluett et al. (2014).
The effect of CBDA and HU-580 on anxiety-like responding was evaluated using the light-dark box emergence test following either foot shock stress or no foot shock (No FS) stress. […]

SMILES: COc1ccccc1N1CCN(CCN(C(=O)C2CCCCC2)c2ccccn2)CC1 [WAY100635, reference compound]
- Time spent in the light box after foot shock (FS) stress vs No FS: spent less time in the light box following FS stress than following No FS stress
